From the supplement of paper PMC10307832

What was measured:
Test in all cases: relative viability (nuclei count vs DMSO), 5 days (fraction); higher = more cells survive
Bexarotene + AZD7762 = compound: C=C(c1ccc(C(=O)O)cc1)c1cc2c(cc1C)C(C)(C)CCC2(C)C [Bexarotene] + NC(=O)Nc1cc(-c2cccc(F)c2)sc1C(=O)N[C@H]1CCCNC1 [AZD7762] (partner 0.2 µM)
Outline: (§1)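 Relative viability is defined as nuclei in treated wells over nuclei in vehicle wells. Duplicate plates were run and medians reported. Lung cancer cell lines in 1536-well plates were dosed by pin tool one day after seeding, with one drug or with a fixed anchor-drug dose plus five library-drug doses (not always all listed) in √10 steps, and nuclei were counted after 5 days.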

Bexarotene + Bortezomib = compound: C=C(c1ccc(C(=O)O)cc1)c1cc2c(cc1C)C(C)(C)CCC2(C)C [Bexarotene] + CC(C)C[C@H](NC(=O)[C@H](Cc1ccccc1)NC(=O)c1cnccn1)B(O)O [Bortezomib] (partner 0.002 µM)
Outline: as §1

Bexarotene + Pictilisib = compound: C=C(c1ccc(C(=O)O)cc1)c1cc2c(cc1C)C(C)(C)CCC2(C)C [Bexarotene] + CS(=O)(=O)N1CCN(Cc2cc3nc(-c4cccc5[nH]ncc45)nc(N4CCOCC4)c3s2)CC1 [Pictilisib] (partner 1 µM)
Outline: as §1

Bexarotene + Linsitinib = compound: C=C(c1ccc(C(=O)O)cc1)c1cc2c(cc1C)C(C)(C)CCC2(C)C [Bexarotene] + C[C@]1(O)C[C@@H](c2nc(-c3ccc4ccc(-c5ccccc5)nc4c3)c3c(N)nccn32)C1 [Linsitinib] (partner 1 µM)
Outline: as §1

Bexarotene + Olaparib = compound: C=C(c1ccc(C(=O)O)cc1)c1cc2c(cc1C)C(C)(C)CCC2(C)C [Bexarotene] + O=C(c1cc(Cc2n[nH]c(=O)c3ccccc23)ccc1F)N1CCN(C(=O)C2CC2)CC1 [Olaparib] (partner 8 µM)
Outline: as §1

Bexarotene + Crizotinib = compound: C=C(c1ccc(C(=O)O)cc1)c1cc2c(cc1C)C(C)(C)CCC2(C)C [Bexarotene] + C[C@@H](Oc1cc(-c2cnn(C3CCNCC3)c2)cnc1N)c1c(Cl)ccc(F)c1Cl [Crizotinib] (partner 1 µM)
Outline: as §1

Bexarotene + Navitoclax = compound: C=C(c1ccc(C(=O)O)cc1)c1cc2c(cc1C)C(C)(C)CCC2(C)C [Bexarotene] + CC1(C)CCC(c2ccc(Cl)cc2)=C(CN2CCN(c3ccc(C(=O)NS(=O)(=O)c4ccc(N[C@H](CCN5CCOCC5)CSc5ccccc5)c(S(=O)(=O)C(F)(F)F)c4)cc3)CC2)C1 [Navitoclax] (partner 0.5 µM)
Outline: as §1

Bexarotene + Foretinib = compound: C=C(c1ccc(C(=O)O)cc1)c1cc2c(cc1C)C(C)(C)CCC2(C)C [Bexarotene] + COc1cc2c(Oc3ccc(NC(=O)C4(C(=O)Nc5ccc(F)cc5)CC4)cc3F)ccnc2cc1OCCCN1CCOCC1 [Foretinib] (partner 0.25 µM)
Outline: as §1

Bexarotene + Alpelisib = compound: C=C(c1ccc(C(=O)O)cc1)c1cc2c(cc1C)C(C)(C)CCC2(C)C [Bexarotene] + Cc1nc(NC(=O)N2CCC[C@H]2C(N)=O)sc1-c1ccnc(C(C)(C)C(F)(F)F)c1 [Alpelisib] (partner 2 µM)
Outline: as §1

Bexarotene + Lapatinib = compound: C=C(c1ccc(C(=O)O)cc1)c1cc2c(cc1C)C(C)(C)CCC2(C)C [Bexarotene] + CS(=O)(=O)CCNCc1ccc(-c2ccc3ncnc(Nc4ccc(OCc5cccc(F)c5)c(Cl)c4)c3c2)o1 [Lapatinib] (partner 2 µM)
Outline: as §1

Bexarotene = compound: C=C(c1ccc(C(=O)O)cc1)c1cc2c(cc1C)C(C)(C)CCC2(C)C [Bexarotene]
Outline: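 Viability was read as treated-well nuclei divided by vehicle-well nuclei, using the median across plates. Lung cancer cell lines in 1536-well plates were kept overnight at 37 °C, pinned with five √10-spaced library-drug doses, and after 5 days were Hoechst-stained, imaged at 4× and counted in MetaXpress. Plates passed only with control CV below 25% and at least one doubling.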

## NCI-H1703
Bexarotene + AZD7762; first compound 0.08 µM
  relative viability: 0.157
Bexarotene + AZD7762; first compound 0.253 µM
  relative viability: 0.128
Bexarotene + AZD7762; first compound 0.8 µM
  relative viability: 0.127
Bexarotene + AZD7762; first compound 2.53 µM
  relative viability: 0.115
Bexarotene + AZD7762; first compound 8 µM
  relative viability: 0.119
Bexarotene + Bortezomib; first compound 0.08 µM
  relative viability: 0.254
Bexarotene + Bortezomib; first compound 0.253 µM
  relative viability: 0.253
Bexarotene + Bortezomib; first compound 0.8 µM
  relative viability: 0.258
Bexarotene + Bortezomib; first compound 2.53 µM
  relative viability: 0.227
Bexarotene + Bortezomib; first compound 8 µM
  relative viability: 0.27
Bexarotene + Pictilisib; first compound 0.08 µM
  relative viability: 0.247
Bexarotene + Pictilisib; first compound 0.253 µM
  relative viability: 0.239
Bexarotene + Pictilisib; first compound 0.8 µM
  relative viability: 0.209
Bexarotene + Pictilisib; first compound 2.53 µM
  relative viability: 0.247
Bexarotene + Pictilisib; first compound 8 µM
  relative viability: 0.262
Bexarotene + Linsitinib; first compound 0.08 µM
  relative viability: 0.846
Bexarotene + Linsitinib; first compound 0.253 µM
  relative viability: 1.02
Bexarotene + Linsitinib; first compound 0.8 µM
  relative viability: 1.02
Bexarotene + Linsitinib; first compound 2.53 µM
  relative viability: 0.619
Bexarotene + Linsitinib; first compound 8 µM
  relative viability: 0.629
Bexarotene + Olaparib; first compound 0.08 µM
  relative viability: 0.532
Bexarotene + Olaparib; first compound 0.253 µM
  relative viability: 0.494
Bexarotene + Olaparib; first compound 0.8 µM
  relative viability: 0.483
Bexarotene + Olaparib; first compound 2.53 µM
  relative viability: 0.386
Bexarotene + Olaparib; first compound 8 µM
  relative viability: 0.377
Bexarotene + Crizotinib; first compound 0.08 µM
  relative viability: 0.414
Bexarotene + Crizotinib; first compound 0.253 µM
  relative viability: 0.601
Bexarotene + Crizotinib; first compound 0.8 µM
  relative viability: 0.57
Bexarotene + Crizotinib; first compound 2.53 µM
  relative viability: 0.421
Bexarotene + Crizotinib; first compound 8 µM
  relative viability: 0.522
Bexarotene + Navitoclax; first compound 0.08 µM
  relative viability: 1.08
Bexarotene + Navitoclax; first compound 0.253 µM
  relative viability: 1.14
Bexarotene + Navitoclax; first compound 0.8 µM
  relative viability: 0.915
Bexarotene + Navitoclax; first compound 2.53 µM
  relative viability: 0.913
Bexarotene + Navitoclax; first compound 8 µM
  relative viability: 0.692
Bexarotene + Foretinib; first compound 0.08 µM
  relative viability: 0.393
Bexarotene + Foretinib; first compound 0.253 µM
  relative viability: 0.377
Bexarotene + Foretinib; first compound 0.8 µM
  relative viability: 0.411
Bexarotene + Foretinib; first compound 2.53 µM
  relative viability: 0.399
Bexarotene + Foretinib; first compound 8 µM
  relative viability: 0.42
Bexarotene + Alpelisib; first compound 0.08 µM
  relative viability: 0.423
Bexarotene + Alpelisib; first compound 0.253 µM
  relative viability: 0.364
Bexarotene + Alpelisib; first compound 0.8 µM
  relative viability: 0.402
Bexarotene + Alpelisib; first compound 2.53 µM
  relative viability: 0.242
Bexarotene + Alpelisib; first compound 8 µM
  relative viability: 0.324
Bexarotene + Lapatinib; first compound 0.08 µM
  relative viability: 1.14
Bexarotene + Lapatinib; first compound 0.253 µM
  relative viability: 1.11
Bexarotene + Lapatinib; first compound 0.8 µM
  relative viability: 0.802
Bexarotene + Lapatinib; first compound 2.53 µM
  relative viability: 0.834
Bexarotene + Lapatinib; first compound 8 µM
  relative viability: 0.762
Bexarotene; 0.08 µM
  relative viability: 0.944
Bexarotene; 0.253 µM
  relative viability: 0.968
Bexarotene; 0.8 µM
  relative viability: 0.759
Bexarotene; 2.53 µM
  relative viability: 0.647
Bexarotene; 8 µM
  relative viability: 0.701
